The nature of assay [1]: nonselective inhibitors of cellular cAMP signaling, dose response, counter-screen for MC4R biased antagonist project, cell-based, TR-FRET cAMP detection (AID 602305).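 Further: U2OS cells stimulated with forskolin near its EC80 as the cAMP inducer; potency is for inhibition of forskolin-stimulated cAMP signaling.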 The class given is functional. For orientation: A counterscreen serves to expose hits that act by an unwanted route or on another target.
In another assay the target is Melanocortin receptor 4 (Homo sapiens, UniProt P32245). The experiment in a line: MC4R antagonist potency on cAMP, dose response, cell-based, TR-FRET, biased antagonists (AID 602298).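 Further: antagonist potency against agonist-stimulated cAMP production.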 The class given is functional. On the technique in general: In TR-FRET formats the signal depends on donor and acceptor labels being close together.
In another assay the test system is Streptococcus. Briefly: Group A Streptococcus viability loss, dose response, counter-screen for streptokinase expression inhibitor project, luminescence, BacTiterGlo (AID 1915).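 Further: potency for reduction of bacterial viability or growth.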 The class given is functional, organism-based.
For assay [2], the target named is T1, Zinc finger protein mex-5 (Caenorhabditis elegans, UniProt Q9XUB2).
T1 sequence (Q9XUB2 whole entry): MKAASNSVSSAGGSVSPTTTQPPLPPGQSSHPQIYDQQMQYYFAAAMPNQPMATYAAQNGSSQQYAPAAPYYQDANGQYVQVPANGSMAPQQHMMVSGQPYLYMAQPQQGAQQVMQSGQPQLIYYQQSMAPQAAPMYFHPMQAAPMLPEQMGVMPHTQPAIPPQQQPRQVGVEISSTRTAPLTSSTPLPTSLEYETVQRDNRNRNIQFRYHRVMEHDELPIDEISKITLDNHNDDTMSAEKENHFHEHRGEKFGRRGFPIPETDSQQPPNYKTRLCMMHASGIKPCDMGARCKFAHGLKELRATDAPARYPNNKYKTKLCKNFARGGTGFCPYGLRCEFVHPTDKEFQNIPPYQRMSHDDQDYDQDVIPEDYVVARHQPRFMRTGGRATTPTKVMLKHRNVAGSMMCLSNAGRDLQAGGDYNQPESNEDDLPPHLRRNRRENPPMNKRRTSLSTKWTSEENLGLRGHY
The experiment in a line: MEX-5/TCR-2 RNA interaction inhibitors, dose response, biochemical, C. elegans, fluorescence polarization (AID 1960). In general terms: Polarisation of emitted light reports the rotation of a fluorescent probe.

Assay [3] concerns the target T2, RNA-binding protein pos-1 (Caenorhabditis elegans, UniProt G5EF15).
T2 sequence (G5EF15 whole entry): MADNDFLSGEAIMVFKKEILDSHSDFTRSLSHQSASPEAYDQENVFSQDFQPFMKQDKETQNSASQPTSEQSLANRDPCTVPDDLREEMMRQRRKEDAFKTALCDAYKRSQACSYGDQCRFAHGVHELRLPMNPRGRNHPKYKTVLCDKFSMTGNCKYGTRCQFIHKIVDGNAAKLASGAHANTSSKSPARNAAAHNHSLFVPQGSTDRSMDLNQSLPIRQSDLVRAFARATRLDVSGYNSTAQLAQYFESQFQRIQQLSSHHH
Briefly: inhibitors of POS-1/mex-3 RNA binding, dose response, biochemical, fluorescence polarization (AID 1964).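 Further: purified POS-1 fused to maltose binding protein made in E. coli; potency of compounds blocking POS-1 binding to fluorescent RNA.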

Another assay addresses T3, Streptokinase A (Streptococcus pyogenes serotype M1, UniProt P10520).
T3 sequence (P10520 whole entry): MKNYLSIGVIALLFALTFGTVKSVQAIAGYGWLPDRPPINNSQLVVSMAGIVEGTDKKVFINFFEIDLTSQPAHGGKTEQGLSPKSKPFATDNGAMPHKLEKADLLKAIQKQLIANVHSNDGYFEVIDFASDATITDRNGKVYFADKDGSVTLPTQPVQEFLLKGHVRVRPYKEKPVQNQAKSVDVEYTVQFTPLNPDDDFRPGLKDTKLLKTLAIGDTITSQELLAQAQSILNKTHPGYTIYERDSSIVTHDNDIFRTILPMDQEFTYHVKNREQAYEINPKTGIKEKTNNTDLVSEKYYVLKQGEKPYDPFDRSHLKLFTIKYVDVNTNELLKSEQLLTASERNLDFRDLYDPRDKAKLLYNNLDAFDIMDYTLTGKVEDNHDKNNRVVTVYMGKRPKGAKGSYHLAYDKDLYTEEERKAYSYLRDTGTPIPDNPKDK
Briefly: S. pyogenes streptokinase expression inhibitors, potency, dose response, plasminogen activation absorbance, OD405 (AID 1914).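 Further: secreted streptokinase activity via plasminogen activation per viability signal from cell pellet.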 The class given is functional, Streptococcus pyogenes M1 GAS.

Another assay concerns CHO. The experiment in a line: cytotoxicity in TLR9-MyD88 CHO cells, dose response, cytotoxicity control for TLR9-MyD88 binding inhibitor project, cell-based, luminescence (AID 588339).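 Further: CHO cells stably coexpressing TLR9 and MyD88 fusions from primary screen; compound exposure lasted 48 hours before viability readout.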 The class given is functional, hamster. Conditions: Cricetulus griseus.
The nature of assay [4]: HEK293T cell cytotoxicity, dose response, cytotoxicity control for HIV Vif inhibitor project, cherry-picks (AID 652208). The class given is functional, cell-based.
The target of a further assay is Beta Lactamase (Pseudomonas aeruginosa, UniProt Q932Y6). The experiment in a line: beta-lactamase reporter inhibitor potency, dose response, artefact control for TLR9-MyD88 binding inhibitor project, BLA reporter cells, FRET fluorescence (AID 588341).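 Further: cell based assay in CHO-K1 cells stably expressing beta-lactamase.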 The class given is cell-based.
In the next assay the test system is H9c2. Briefly: cells. The class given is functional, cell-based. Conditions: Rattus norvegicus, H9c2, Myocardium.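 Further: confirmatory concentration-response retest of ultra-high-throughput screening hits for modulation of myocardial damage; cell death induced by hydrogen peroxide oxidative stress; compound pretreatment for 60 min then peroxide exposure for 2 h; potency is for protecting the cells against peroxide damage rather than for killing them.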
Assay [5] addresses Ras and Rab interactor 1/Tyrosine-protein kinase ABL1 (Homo sapiens, UniProt P00519+Q13671). The class given is functional.
The target in assay [6] is T4, Apoptotic protease-activating factor 1 (Homo sapiens, UniProt O14727).
T4 sequence (O14727 whole entry): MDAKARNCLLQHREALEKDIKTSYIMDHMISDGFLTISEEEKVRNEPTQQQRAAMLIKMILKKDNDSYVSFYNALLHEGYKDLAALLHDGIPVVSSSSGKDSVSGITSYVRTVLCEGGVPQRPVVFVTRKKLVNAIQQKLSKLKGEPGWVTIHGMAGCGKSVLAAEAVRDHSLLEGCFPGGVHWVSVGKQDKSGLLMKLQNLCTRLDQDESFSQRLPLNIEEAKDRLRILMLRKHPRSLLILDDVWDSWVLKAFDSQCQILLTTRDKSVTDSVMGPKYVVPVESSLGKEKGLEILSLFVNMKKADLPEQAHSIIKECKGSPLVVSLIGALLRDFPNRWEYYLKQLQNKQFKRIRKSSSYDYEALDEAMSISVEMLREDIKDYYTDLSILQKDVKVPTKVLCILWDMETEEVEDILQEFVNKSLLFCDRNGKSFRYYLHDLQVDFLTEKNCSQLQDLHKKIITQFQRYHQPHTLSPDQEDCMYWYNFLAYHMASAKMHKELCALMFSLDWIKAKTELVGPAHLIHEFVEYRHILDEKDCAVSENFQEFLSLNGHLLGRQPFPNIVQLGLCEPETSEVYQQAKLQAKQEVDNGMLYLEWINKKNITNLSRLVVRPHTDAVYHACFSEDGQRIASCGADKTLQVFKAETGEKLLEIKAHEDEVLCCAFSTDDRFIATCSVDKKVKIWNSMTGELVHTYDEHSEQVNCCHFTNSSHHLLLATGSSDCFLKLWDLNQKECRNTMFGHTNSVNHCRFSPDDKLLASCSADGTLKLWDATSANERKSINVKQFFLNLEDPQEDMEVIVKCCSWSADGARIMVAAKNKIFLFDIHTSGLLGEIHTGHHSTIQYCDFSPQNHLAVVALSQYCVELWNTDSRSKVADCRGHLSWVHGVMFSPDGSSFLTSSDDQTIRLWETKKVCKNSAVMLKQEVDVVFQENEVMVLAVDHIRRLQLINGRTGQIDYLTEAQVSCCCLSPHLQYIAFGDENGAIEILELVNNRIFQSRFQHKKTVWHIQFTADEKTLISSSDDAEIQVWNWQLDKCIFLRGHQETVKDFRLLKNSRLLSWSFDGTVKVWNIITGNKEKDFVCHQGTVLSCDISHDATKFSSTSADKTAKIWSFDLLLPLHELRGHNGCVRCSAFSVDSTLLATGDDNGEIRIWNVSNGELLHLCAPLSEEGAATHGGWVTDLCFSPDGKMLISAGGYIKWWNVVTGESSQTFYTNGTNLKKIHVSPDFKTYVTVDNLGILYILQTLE
The class given is functional.

The target in another assay is T5, Coagulation factor XII (Homo sapiens, UniProt P00748).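 Further: activated factor XIIa alpha cleaving a fluorogenic AMC peptide substrate; inhibitor potency from loss of enzyme activity.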
T5 sequence (P00748 whole entry): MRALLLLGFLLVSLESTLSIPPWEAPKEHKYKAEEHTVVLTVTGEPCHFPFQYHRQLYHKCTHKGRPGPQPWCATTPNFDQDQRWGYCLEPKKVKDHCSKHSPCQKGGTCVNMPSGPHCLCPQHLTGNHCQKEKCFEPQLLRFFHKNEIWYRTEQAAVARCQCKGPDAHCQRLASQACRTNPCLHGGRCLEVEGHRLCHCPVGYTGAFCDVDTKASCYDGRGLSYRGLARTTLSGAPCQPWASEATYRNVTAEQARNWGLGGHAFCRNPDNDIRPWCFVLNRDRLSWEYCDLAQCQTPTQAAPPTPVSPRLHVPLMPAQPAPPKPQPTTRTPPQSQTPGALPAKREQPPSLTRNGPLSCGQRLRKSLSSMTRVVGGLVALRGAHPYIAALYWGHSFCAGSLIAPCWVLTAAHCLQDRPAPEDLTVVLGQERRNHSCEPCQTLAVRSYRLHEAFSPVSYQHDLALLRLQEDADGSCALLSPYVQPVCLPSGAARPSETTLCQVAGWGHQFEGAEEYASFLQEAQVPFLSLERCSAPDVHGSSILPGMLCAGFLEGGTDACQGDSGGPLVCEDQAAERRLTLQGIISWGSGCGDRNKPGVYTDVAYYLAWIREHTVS
The class given is functional.

Assay [7] concerns the target T6, High affinity choline transporter 1 (Homo sapiens, UniProt Q9GZV3).
T6 sequence (Q9GZV3 whole entry): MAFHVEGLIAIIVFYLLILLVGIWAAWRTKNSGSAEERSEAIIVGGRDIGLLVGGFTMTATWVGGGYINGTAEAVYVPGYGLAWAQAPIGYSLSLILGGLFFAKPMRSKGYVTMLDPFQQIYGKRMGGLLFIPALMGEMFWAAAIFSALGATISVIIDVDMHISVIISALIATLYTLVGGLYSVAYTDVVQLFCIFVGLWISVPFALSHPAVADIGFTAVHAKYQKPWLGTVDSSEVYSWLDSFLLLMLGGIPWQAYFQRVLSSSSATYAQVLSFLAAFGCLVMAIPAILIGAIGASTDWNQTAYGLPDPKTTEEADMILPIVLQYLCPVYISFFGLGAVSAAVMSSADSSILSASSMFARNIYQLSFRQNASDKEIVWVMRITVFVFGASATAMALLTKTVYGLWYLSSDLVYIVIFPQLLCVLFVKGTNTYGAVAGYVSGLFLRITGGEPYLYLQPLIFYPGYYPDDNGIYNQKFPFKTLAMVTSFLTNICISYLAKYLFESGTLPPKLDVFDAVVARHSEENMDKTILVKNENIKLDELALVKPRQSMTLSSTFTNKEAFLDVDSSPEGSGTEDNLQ
The experiment in a line: CHT inhibitors, dose response, cell-based, 10-point CRC, membrane potential dye (AID 588401).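 Further: membrane potential dye fluorescence of choline-evoked depolarization via CHT.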 The class given is functional.

The target of assay [8] is T6, High affinity choline transporter 1. Briefly: CHT inhibitors, dose response, cell-based, 5-point CRC, membrane potential dye (AID 504840). The class given is functional.
The target in assay [9] is 26S proteasome non-ATPase regulatory subunit 14 (Homo sapiens, UniProt O00487). The experiment in a line: inhibition of proteasome subunit RPN11 – biochemical, fluorescence polarization, uHTS hits, confirmation (AID 602368). The class given is functional.
Assay [10] addresses 72 kDa type IV collagenase (Homo sapiens, UniProt P08253). The experiment in a line: Dose Response validation of uHTS RPN11 inhibitor hits using a MMP-2 Fluorescence assay. The class given is functional.
The next assay addresses Prothrombin (Bos taurus, UniProt P00735). The experiment in a line: thrombin inhibition, dose response, biochemical, fluorescence polarization, uHTS hits (AID 602369). The class given is functional.

Active and inactive are the calls of the source. Bounds are passed on as bounds.

Sequence of Melanocortin receptor 4 (P32245 whole entry): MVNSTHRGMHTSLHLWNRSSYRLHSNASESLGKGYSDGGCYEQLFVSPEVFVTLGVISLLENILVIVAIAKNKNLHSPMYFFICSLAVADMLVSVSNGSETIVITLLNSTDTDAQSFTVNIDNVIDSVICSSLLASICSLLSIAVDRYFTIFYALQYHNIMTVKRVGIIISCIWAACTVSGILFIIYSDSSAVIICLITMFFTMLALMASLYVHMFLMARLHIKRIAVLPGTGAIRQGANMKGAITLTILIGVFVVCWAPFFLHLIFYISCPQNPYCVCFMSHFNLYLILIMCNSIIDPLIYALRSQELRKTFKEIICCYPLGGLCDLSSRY
Sequence of Beta Lactamase (Q932Y6 whole entry): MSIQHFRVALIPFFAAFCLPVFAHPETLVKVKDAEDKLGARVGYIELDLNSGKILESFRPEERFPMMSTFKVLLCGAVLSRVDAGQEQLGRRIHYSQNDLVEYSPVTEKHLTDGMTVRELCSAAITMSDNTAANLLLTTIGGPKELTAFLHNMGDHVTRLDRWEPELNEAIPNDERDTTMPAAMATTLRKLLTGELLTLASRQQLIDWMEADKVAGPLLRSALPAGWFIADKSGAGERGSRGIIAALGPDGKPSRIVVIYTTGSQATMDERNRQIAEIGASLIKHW
Sequence of Ras and Rab interactor 1/Tyrosine-protein kinase ABL1 (P00519 whole entry): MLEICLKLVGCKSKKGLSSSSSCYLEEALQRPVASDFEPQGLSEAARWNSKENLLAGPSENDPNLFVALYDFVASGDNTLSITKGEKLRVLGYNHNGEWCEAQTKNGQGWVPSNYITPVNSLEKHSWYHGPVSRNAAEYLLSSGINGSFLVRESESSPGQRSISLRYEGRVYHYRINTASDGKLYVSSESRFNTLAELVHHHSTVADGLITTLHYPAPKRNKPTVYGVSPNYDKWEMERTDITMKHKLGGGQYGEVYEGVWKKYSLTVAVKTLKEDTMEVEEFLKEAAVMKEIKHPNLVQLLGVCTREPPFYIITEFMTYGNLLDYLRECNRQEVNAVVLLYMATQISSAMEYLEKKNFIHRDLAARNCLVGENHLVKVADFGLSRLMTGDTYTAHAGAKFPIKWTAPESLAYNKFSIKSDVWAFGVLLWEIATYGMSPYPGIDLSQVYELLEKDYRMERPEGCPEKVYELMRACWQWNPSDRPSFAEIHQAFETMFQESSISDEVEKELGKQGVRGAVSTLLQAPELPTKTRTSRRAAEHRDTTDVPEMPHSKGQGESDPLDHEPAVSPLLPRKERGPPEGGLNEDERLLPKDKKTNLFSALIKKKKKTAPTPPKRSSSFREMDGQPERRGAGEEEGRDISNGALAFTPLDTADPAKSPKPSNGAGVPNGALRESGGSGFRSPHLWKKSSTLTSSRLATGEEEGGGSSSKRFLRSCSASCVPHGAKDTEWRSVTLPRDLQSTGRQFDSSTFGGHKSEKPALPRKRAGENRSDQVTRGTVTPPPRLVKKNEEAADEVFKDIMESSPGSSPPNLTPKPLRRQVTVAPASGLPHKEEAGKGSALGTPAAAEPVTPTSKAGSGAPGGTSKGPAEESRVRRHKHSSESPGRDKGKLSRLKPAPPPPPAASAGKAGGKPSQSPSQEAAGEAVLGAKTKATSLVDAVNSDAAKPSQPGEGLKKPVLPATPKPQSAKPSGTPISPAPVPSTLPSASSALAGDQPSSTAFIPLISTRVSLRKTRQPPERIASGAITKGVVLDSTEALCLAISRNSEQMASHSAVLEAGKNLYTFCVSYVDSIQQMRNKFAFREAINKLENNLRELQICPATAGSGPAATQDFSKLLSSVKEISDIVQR
Sequence of Ras and Rab interactor 1/Tyrosine-protein kinase ABL1 (Q13671 whole entry): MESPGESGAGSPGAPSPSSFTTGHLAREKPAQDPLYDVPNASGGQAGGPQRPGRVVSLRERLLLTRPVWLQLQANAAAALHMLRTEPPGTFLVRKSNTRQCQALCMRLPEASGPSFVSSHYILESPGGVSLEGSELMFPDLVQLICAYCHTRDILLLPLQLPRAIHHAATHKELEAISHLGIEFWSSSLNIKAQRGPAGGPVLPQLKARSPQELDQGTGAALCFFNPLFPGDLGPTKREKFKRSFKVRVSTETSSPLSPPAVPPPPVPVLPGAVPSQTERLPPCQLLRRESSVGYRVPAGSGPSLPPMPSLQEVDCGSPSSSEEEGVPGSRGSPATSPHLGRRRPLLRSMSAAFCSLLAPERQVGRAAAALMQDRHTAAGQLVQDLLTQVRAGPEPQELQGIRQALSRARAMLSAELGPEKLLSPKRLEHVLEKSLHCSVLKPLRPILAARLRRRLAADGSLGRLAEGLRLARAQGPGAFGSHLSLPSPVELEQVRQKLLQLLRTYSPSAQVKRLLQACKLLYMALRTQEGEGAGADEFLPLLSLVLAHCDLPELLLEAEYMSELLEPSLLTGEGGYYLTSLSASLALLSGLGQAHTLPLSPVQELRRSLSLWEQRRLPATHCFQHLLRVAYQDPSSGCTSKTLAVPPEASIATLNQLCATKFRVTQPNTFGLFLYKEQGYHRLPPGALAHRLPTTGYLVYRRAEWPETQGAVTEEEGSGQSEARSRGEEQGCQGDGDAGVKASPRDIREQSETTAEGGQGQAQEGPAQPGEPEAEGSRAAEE
Sequence of 72 kDa type IV collagenase (P08253 whole entry): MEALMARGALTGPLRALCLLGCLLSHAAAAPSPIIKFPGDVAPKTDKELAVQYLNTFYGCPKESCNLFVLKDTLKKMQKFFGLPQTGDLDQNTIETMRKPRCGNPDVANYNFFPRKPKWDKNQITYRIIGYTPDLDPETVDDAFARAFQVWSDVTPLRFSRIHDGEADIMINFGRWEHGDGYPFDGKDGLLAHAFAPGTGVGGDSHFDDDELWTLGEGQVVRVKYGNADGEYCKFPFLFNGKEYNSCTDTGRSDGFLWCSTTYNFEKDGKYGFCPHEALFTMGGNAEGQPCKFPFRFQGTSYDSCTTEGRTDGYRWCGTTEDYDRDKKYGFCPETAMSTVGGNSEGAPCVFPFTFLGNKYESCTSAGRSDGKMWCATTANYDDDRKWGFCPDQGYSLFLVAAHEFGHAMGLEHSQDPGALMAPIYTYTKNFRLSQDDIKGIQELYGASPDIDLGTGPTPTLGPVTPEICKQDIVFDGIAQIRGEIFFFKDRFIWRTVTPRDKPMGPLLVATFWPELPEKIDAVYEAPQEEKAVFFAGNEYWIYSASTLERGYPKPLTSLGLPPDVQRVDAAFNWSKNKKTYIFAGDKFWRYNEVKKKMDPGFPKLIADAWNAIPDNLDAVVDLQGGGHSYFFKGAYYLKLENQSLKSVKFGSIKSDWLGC
Sequence of 26S proteasome non-ATPase regulatory subunit 14 (O00487 whole entry): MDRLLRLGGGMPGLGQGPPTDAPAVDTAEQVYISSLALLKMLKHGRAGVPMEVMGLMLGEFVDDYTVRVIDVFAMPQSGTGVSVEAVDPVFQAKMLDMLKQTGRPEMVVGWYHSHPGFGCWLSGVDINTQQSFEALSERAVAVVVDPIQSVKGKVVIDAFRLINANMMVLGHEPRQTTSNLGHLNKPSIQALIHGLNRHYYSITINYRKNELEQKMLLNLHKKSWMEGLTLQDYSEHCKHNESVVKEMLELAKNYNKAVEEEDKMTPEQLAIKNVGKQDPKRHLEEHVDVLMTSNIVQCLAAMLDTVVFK

Take `COC(=O)C(CC(C)C)NC(=O)/C=C/c1ccc(Cl)cc1` (stereo unspecified): the IC50 (in [1]; at Melanocortin receptor 4) was > 64.6 µM (inactive) in each case.
Consider `Nc1c(C(=O)Nc2nc3ccccc3s2)sc2nc(-c3cccs3)ccc12`, for which the EC50 is 109 µM (active) with Streptococcus, > 150 µM (inconclusive) in [2], 19.2 µM (inconclusive) in assay [3] and > 150 µM (not active) on Streptokinase A. Further, the results for the IC50 in the assay on CHO and on Beta Lactamase were 5.51 µM (active) and 3.93 µM (active), respectively. Besides, the half-maximal activity concentration (AC50) in assay [4] is 7.27 µM (active).
As for `Cc1ccc(-c2nn3c(-c4ccco4)nnc3c3ccccc23)cc1S(=O)(=O)NCC1CCCO1` (stereo unspecified), the figures for the IC50 (in the assay with H9c2; in [5]; in [6]) were > 79 µM (inactive), > 73.5 µM (inactive) and 5.73 µM (active), respectively.
With `CC1(C(=O)N/N=C/c2c(F)c(F)c(F)c(F)c2F)CC1(Cl)Cl` (stereo unspecified), the IC50 was > 64.6 µM (inactive) in assay [1] and > 7.17 µM (active) on Melanocortin receptor 4.
In the case of `COc1ccc(CCn2c(C)cc(C(=O)CCl)c2C)cc1OC`, the IC50 in assay [1] is > 64.6 µM (inactive); on Melanocortin receptor 4, > 64.6 µM (inactive); on Coagulation factor XII, > 50 µM (inactive).
On to `CCN1CCN(c2ncnc3scc(-c4ccc(C)cc4)c23)CC1`, for which the IC50 in assay [7] is 1.5 µM (active); in assay [8], 2.09 µM (active).
The like results for `N#C/C(=C(/O)c1ccccc1F)c1nc2cc(C(F)(F)F)ccc2s1` were, in that order, 6.31 µM (active) and 10 µM (active).
As for `O=[N+]([O-])c1ccc(N/N=C/c2c[nH]c3ccccc23)cc1`, the IC50 in assay [9] was 1.77 µM (active); with CHO, 47.2 µM (inactive); in assay [10], > 100 µM (inactive); at Beta Lactamase it was 10.2 µM (inactive); at Prothrombin, 2.05 µM (active).

The IC50 is the point on the concentration scale where inhibition reaches its midpoint. Broadly, the EC50 is the concentration that produces a half-maximal response. Usually AC50 stands for the concentration at which the activity in the assay is half-maximal.

Source of the values: ChEMBL document CHEMBL1201862, “PubChem BioAssay data set” (2004).
